Laboratory results reported in US20230240297A1, “SELECTIVE HERBICIDES BASED ON SUBSTITUTED ISOXAZOLIN CARBOXAMIDES AND CYPROSULFAMIDE” (Bayer Aktiengesellschaft, priority 2020, published 2023).

Legend:
Assay type in all cases: in vivo, maize
[1] = tested on: ZEAMA Abraxas; assay: Tank-mix; post-emergence, crop damage with and without safener; settings: for HER effect + SAF / HER effect: Final assessment; for HER effect: no safener
How it was run: (§1)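 Crops in sandy loam in the greenhouse were sprayed at the 1–3-leaf stage, 2–3 weeks after sowing, with herbicide/safener combinations or the single actives at various dosages in 300 l/ha water. Injury was scored visually 1–3 weeks after treatment as % versus untreated plants (0% none, 100% complete kill).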

[2] = tested on: ZEAMA Sileno; assay: Seed treatment with safener; post-emergence herbicide application; design: Reduction [Difference]: scale not given here; settings: Final assessment; for Reduction [%] / Reduction [Difference]: Cyprosulfamide 0.5 g a.i./kg seed; for Reduction [Difference]: damage without safener - damage with safener; for HER effect + SAF (crop damage with safener): Cyprosulfamide seed treatment 0.5 g a.i./kg seed; for HER effect (crop damage, herbicide without safener): no safener
How it was run: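 Maize seeds slurry-coated with WP safener (g a.i./kg seed) or left untreated, sown in sandy loam and grown in greenhouse. WP herbicide sprayed post-emergence at BBCH11-13 in 300 l/ha water with wetting agent and adjuvants (e.g. Mero 1.5 l/ha, ammonium sulphate 2 kg/ha); means of at least 2 replicates.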

[3] = tested on: ZEAMA Sileno; assay: Treatment 1 day before (safener applied one day before herbicide, post-emergence); design: key to Reduction [Difference]: percentage points of visually scored % crop damage vs untreated control; settings: for Reduction [%] / Reduction [Difference]: cyprosulfamide 100 g a.i./ha 1 day before; for HER effect + SAF: cyprosulfamide 100 g a.i./ha applied 1 day before; for HER effect + SAF / HER effect: Final assessment; for HER effect: no safener
From the text: Seeds of crops (spring wheat, TRZAS; spring barley, HORVS; maize, ZEAMA) were placed in sandy loam soil in pots of a diameter of 7-8 cm, covered with soil, and cultivated in a greenhouse under good growth conditions until plants were at the 1-3 leaf stage (BBCH 11-13). For split safener and herbicide treatment, first the safener was applied followed by the herbicide treatment on the following day. The safener and herbicides were formulated as WP and sprayed onto the green parts of the plants as an aqueous suspension at an equivalent water application rate of 300 1/ha, with addition of wetting agent and adjuvants (e.g. Mero, 1.5 1/ha; ammonium sulphate, 2 kg/ha). An equivalent set of plants was treated with the herbicides but without the prior safener treatment.
After application, the test plants were kept in the greenhouse under good growth conditions. 10 and 21 days after treatment (DAT) with the herbicide, % crop damage observed on the treated plants was scored visually in comparison to control plants that had not received any safener or herbicide treatment.

[4] = tested on: ZEAMA Sileno; assay: Tank-mix; post-emergence, crop damage with and without safener; settings: for HER effect + SAF / HER effect: Final assessment; for HER effect: no safener
How it was run: as §1

[5] = HER 32 g a.i./ha, cyprosulfamide 100 g a.i./ha
[6] = HER dose 32 g a.i./ha + cyprosulfamide 100 g a.i./ha tank-mix
[7] = HER 2 g a.i./ha, cyprosulfamide 50 g a.i./ha
[8] = HER dose 2 g a.i./ha + cyprosulfamide 50 g a.i./ha tank-mix
[9] = HER 8 g a.i./ha, cyprosulfamide 50 g a.i./ha
[10] = HER dose 8 g a.i./ha + cyprosulfamide 50 g a.i./ha tank-mix

COCCOC(=O)C1C=CC(NC(=O)C2(CCl)CC(c3cc(F)cc(F)c3)=NO2)C1 (stereo not shown) [Example 1.1]
Reduction [%] [1, 5]: 84%
Reduction [Difference] [1, 5]: 80
HER effect + SAF [1, 6]: 15%
HER effect ([1]; HER dose 32 g a.i./ha): 95%
Reduction [%] ([2]; HER dose 8 g a.i./ha): 100%
Reduction [Difference] ([2]; HER dose 8 g a.i./ha): 30
HER effect + SAF (crop damage with safener) ([2]; HER dose 8 g a.i./ha): 0%
HER effect (crop damage, herbicide without safener) ([2]; HER dose 8 g a.i./ha): 30%
Reduction [%] ([2]; HER dose 32 g a.i./ha): 100%
Reduction [Difference] ([2]; HER dose 32 g a.i./ha): 70
HER effect + SAF (crop damage with safener) ([2]; HER dose 32 g a.i./ha): 0%
HER effect (crop damage, herbicide without safener) ([2]; HER dose 32 g a.i./ha): 70%
Reduction [%] ([3]; HER 32 g a.i./ha): 79%
Reduction [Difference] ([3]; HER 32 g a.i./ha): 55
HER effect + SAF ([3]; HER dose 32 g a.i./ha): 15%
HER effect ([3]; HER dose 32 g a.i./ha): 70%

COC(=O)C1C=CC(NC(=O)C2(C)CC(c3cc(F)cc(F)c3)=NO2)C1 (stereo not shown) [Example 1.19]
Reduction [%] [1, 7]: 80%
Reduction [Difference] [1, 7]: 60
HER effect + SAF [1, 8]: 15%
HER effect ([1]; HER dose 2 g a.i./ha): 75%
Reduction [%] ([2]; HER dose 8 g a.i./ha): 75%
Reduction [Difference] ([2]; HER dose 8 g a.i./ha): 30
HER effect + SAF (crop damage with safener) ([2]; HER dose 8 g a.i./ha): 10%
HER effect (crop damage, herbicide without safener) ([2]; HER dose 8 g a.i./ha): 40%
Reduction [%] ([2]; HER dose 32 g a.i./ha): 75%
Reduction [Difference] ([2]; HER dose 32 g a.i./ha): 60
HER effect + SAF (crop damage with safener) ([2]; HER dose 32 g a.i./ha): 20%
HER effect (crop damage, herbicide without safener) ([2]; HER dose 32 g a.i./ha): 80%
Reduction [%] ([3]; HER 32 g a.i./ha): 88%
Reduction [Difference] ([3]; HER 32 g a.i./ha): 70
HER effect + SAF ([3]; HER dose 32 g a.i./ha): 10%
HER effect ([3]; HER dose 32 g a.i./ha): 80%

COC(=O)C1C=CC(NC(=O)C2(C)CC(c3cc(F)cc(Cl)c3)=NO2)C1 (stereo not shown) [Example 1.21]
Reduction [%] [1, 9]: 71%
Reduction [Difference] [1, 9]: 25
HER effect + SAF [1, 10]: 10%
HER effect ([1]; HER dose 8 g a.i./ha): 35%
Reduction [%] ([2]; HER dose 32 g a.i./ha): 71%
Reduction [Difference] ([2]; HER dose 32 g a.i./ha): 25
HER effect + SAF (crop damage with safener) ([2]; HER dose 32 g a.i./ha): 10%
HER effect (crop damage, herbicide without safener) ([2]; HER dose 32 g a.i./ha): 35%
Reduction [%] ([3]; HER 32 g a.i./ha): 57%
Reduction [Difference] ([3]; HER 32 g a.i./ha): 20
HER effect + SAF ([3]; HER dose 32 g a.i./ha): 15%
HER effect ([3]; HER dose 32 g a.i./ha): 35%

CN(C)C(=O)SCCOC(=O)C1C=CC(NC(=O)C2(C)CC(c3cc(F)cc(F)c3)=NO2)C1 (stereo not shown) [Example 1.29]
Reduction [%] [4, 9]: 67%
Reduction [Difference] [4, 9]: 40
Reduction [%] [4, 5]: 60%
Reduction [Difference] [4, 5]: 45
HER effect + SAF [4, 10]: 20%
HER effect ([4]; HER dose 8 g a.i./ha): 60%
HER effect + SAF [4, 6]: 30%
HER effect ([4]; HER dose 32 g a.i./ha): 75%
Reduction [%] ([2]; HER dose 8 g a.i./ha): 100%
Reduction [Difference] ([2]; HER dose 8 g a.i./ha): 60
HER effect + SAF (crop damage with safener) ([2]; HER dose 8 g a.i./ha): 0%
HER effect (crop damage, herbicide without safener) ([2]; HER dose 8 g a.i./ha): 60%
Reduction [%] ([2]; HER dose 32 g a.i./ha): 93%
Reduction [Difference] ([2]; HER dose 32 g a.i./ha): 70
HER effect + SAF (crop damage with safener) ([2]; HER dose 32 g a.i./ha): 5%
HER effect (crop damage, herbicide without safener) ([2]; HER dose 32 g a.i./ha): 75%
Reduction [%] ([3]; HER 8 g a.i./ha): 67%
Reduction [Difference] ([3]; HER 8 g a.i./ha): 40
Reduction [%] ([3]; HER 32 g a.i./ha): 73%
Reduction [Difference] ([3]; HER 32 g a.i./ha): 55
HER effect + SAF ([3]; HER dose 8 g a.i./ha): 20%
HER effect ([3]; HER dose 8 g a.i./ha): 60%
HER effect + SAF ([3]; HER dose 32 g a.i./ha): 20%
HER effect ([3]; HER dose 32 g a.i./ha): 75%

CC1(C(=O)NC2C=CC(C(=O)O)C2)CC(c2cc(F)cc(F)c2)=NO1 (stereo not shown) [Example 1.36]
Reduction [%] [4, 7]: 50%
Reduction [Difference] ([4]; HER 2 g a.i./ha, cyprosulfamide 50 g a.i./ha, damage without safener - damage with safener): 20
Reduction [%] [4, 9]: 63%
Reduction [Difference] [4, 9]: 50
HER effect + SAF [4, 8]: 20%
HER effect ([4]; HER dose 2 g a.i./ha, 0% = no injury, 100% = complete kill): 40%
HER effect + SAF [4, 10]: 30%
HER effect ([4]; HER dose 8 g a.i./ha): 80%
Reduction [%] ([2]; HER dose 2 g a.i./ha): 88%
Reduction [Difference] ([2]; HER dose 2 g a.i./ha): 35
HER effect + SAF (crop damage with safener) ([2]; HER dose 2 g a.i./ha): 5%
HER effect (crop damage, herbicide without safener) ([2]; HER dose 2 g a.i./ha): 40%
Reduction [%] ([2]; HER dose 8 g a.i./ha): 94%
Reduction [Difference] ([2]; HER dose 8 g a.i./ha): 75
HER effect + SAF (crop damage with safener) ([2]; HER dose 8 g a.i./ha): 5%
HER effect (crop damage, herbicide without safener) ([2]; HER dose 8 g a.i./ha): 80%
Reduction [%] ([2]; HER dose 32 g a.i./ha): 87%
Reduction [Difference] ([2]; HER dose 32 g a.i./ha): 65
HER effect + SAF (crop damage with safener) ([2]; HER dose 32 g a.i./ha): 10%
HER effect (crop damage, herbicide without safener) ([2]; HER dose 32 g a.i./ha): 75%
Reduction [%] ([3]; HER 2 g a.i./ha): 63%
Reduction [Difference] ([3]; HER 2 g a.i./ha): 25
Reduction [%] ([3]; HER 8 g a.i./ha): 69%
Reduction [Difference] ([3]; HER 8 g a.i./ha): 55
Reduction [%] ([3]; HER 32 g a.i./ha): 67%
Reduction [Difference] ([3]; HER 32 g a.i./ha): 50
HER effect + SAF ([3]; HER dose 2 g a.i./ha): 15%
HER effect ([3]; HER dose 2 g a.i./ha): 40%
HER effect + SAF ([3]; HER dose 8 g a.i./ha): 25%
HER effect ([3]; HER dose 8 g a.i./ha): 80%
HER effect + SAF ([3]; HER dose 32 g a.i./ha): 25%
HER effect ([3]; HER dose 32 g a.i./ha): 75%
